The results in this text go back to patent publication US20260207605A1, “KRAS G12D INHIBITORS AND USES THEREOF” (Abbisko Therapeutics Co., Ltd., priority 2022, published 2026).

For one data set, the system named is AsPC-1. The experiment in a line: Anti-proliferative 2D CTG assay, AsPC-1. The class given is cell-based. The conditions noted are these: Homo sapiens, ASPC1, 96 h, AsPC-1 cells, 4 days incubation, read-out: AsPC-1 cell IC50. On the procedure: (§1) 1.1 Day 0 Cell Culture and Plating
(§2) Cells in a logarithmic growth phase were harvested and the cells were counted by using a […]. Cell viability was tested by using a trypan blue exclusion method to ensure that cell viability was above 90%. The cell concentration was adjusted to the desired final density, and 90 μL of cell suspension was added to a 96-well plate, then the cells were incubated overnight at 37° C., 5% CO2 and 95% humidity.
(§3) 10 μL PBS was added to each well of the TO plate containing cells. The CTG reagent was thawed and the plate was equilibrated to room temperature for 30 minutes. The CTG solution of 50 µL/well was added to each well. The cells were lysed by shaking on an orbital shaker for 5 minutes. The plate was left at room temperature for 20 minutes to stabilize the luminescence signal. The TO fluorescence signal value was read.
(§4) From the 10 mM stock solution, with a ratio of 1:5, 9-point serial dilutions were performed. The 10× medium containing the compound was transferred into corresponding wells of the 96 wells. The final maximum compound concentration was […] and the final DMSO concentration was 0.1%. The 96-well plate was placed in a 37° C. incubator and incubated for 4 days.
(§5) 50 μL/well of detection reagent (CTG) was added to the cells, and the signal was read in an Envision machine.
(§6) The percent inhibition (%) at each compound concentration was calculated from the signal in the HPE and ZPE control wells and the fluorescence signal in the individual compound wells included in each assay plate. […] The compound concentration required for inhibitory concentration at 50% (IC50) was determined using a four-parameter logarithmic dose-response equation by testing the concentration of the compound and the inhibition percentage value. The endpoint value (IC50) of the reference compound was assessed in each experiment as a quality control measure. If the endpoint value is within three times the expected value, the experiment may be considered acceptable.

The subject of another data set is AGS. Nature of the data set: Anti-proliferative 2D CTG assay, AGS. Type of data set: cell-based. To be noted: AGS cells, 4 days incubation, read-out: AGS cell IC50. As for the experimental part:
as §1, §2, §3, §4, §5, §6

In a further data set the target is KRAS^G12D/cRAF (Homo sapiens, UniProt P01116, G12D). The experiment in a line: KRAS G12D/cRAF binding test (Alphalisa). To be noted: His-tagged KRAS G12D with GMPPNP, GST-tagged cRAF. As for the experimental part: The compound was dissolved in 100% DMSO at a starting concentration of 5 mM and diluted in DMSO with a 3-fold serial dilution method for a total of 8 concentration points. 1 μL of the compound or DMSO at each concentration point was added into 99 μL of the experimental buffer to obtain 10× stock solution.
The ratio for each compound concentration was calculated from the signal of the DMSO control group contained in each assay plate and the Alphalisa signal in each compound well. The compound concentration required for inhibitory concentration at 50% (IC50) was determined using a four-parameter logarithmic dose-response equation by testing the concentration of the compound and the value of the ratio. The endpoint value (IC50) of the reference compound was assessed in each experiment as a quality control measure. If the endpoint value is within three times the expected value, the experiment may be considered acceptable.
A general note: Bead proximity is the source of the signal in Alpha formats.

Another data set relates to LS513. Nature of the data set: Anti-proliferative 2D CTG assay, LS513. Type of data set: cell-based. The conditions noted are these: Homo sapiens, LS-513, 96 h, LS513 cells, 4 days incubation, read-out: LS513 cell IC50. As for the experimental part: as §1, §2, §3, §4, §5, §6
For another data set, the system named is HPAC. The experiment in a line: Anti-proliferative 2D CTG assay, HPAC. Type of data set: cell-based. The conditions noted are these: Homo sapiens, 96 h, HPAC cells, 4 days incubation, read-out: HPAC cell IC50. As for the experimental part:
as §1, §2, §3, §4, §5, §6

The nature of data set [1]: Pharmacokinetic experiment in mice (single PO or IV administration). To be noted: male, ICR, mouse, plasma.

Like-named read-outs stand apart in the source and are kept apart here.

KRAS^G12D/cRAF, sequence (P01116 1-188 isoform P01116-2 G12D): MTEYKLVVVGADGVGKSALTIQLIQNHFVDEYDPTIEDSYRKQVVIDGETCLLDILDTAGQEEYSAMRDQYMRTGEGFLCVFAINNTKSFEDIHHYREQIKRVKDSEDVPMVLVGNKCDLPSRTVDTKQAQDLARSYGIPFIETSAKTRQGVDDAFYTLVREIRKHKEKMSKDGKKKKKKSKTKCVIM

Turning to `C#Cc1c(F)ccc2cc(O)cc(-c3ncc4c(N5C[C@@H]6CC[C@](C7CC7)(C5)N6)nc(OCC56CC(=C)CN5CC(=C)C6)nc4c3F)c12` [Example 12, 4-(4-((1S,5S)-1-cyclopropyl-3,8-diazabicyclo[3.2.1]octan-3-yl)-2-((2,6-dimethylenetetrahydro-1H-pyrrolizin-7a(5H)-yl)methoxy)-8-fluoropyrido[4,3-d]pyrimidin-7-yl)-5-ethynyl-6-fluoronaphthalen-2-ol], the IC50 in the data set with AsPC-1 is 219 nM; in the data set on AGS (Homo sapiens, AGS, 96 h), 104 nM; at KRAS^G12D/cRAF it was 102 nM.

`C#Cc1c(F)ccc2cc(O)cc(-c3ncc4c(N5C[C@@H]6CC[C@](CC)(C5)N6)nc(OC[C@@]56CCCN5CC(=C)C6)nc4c3F)c12` [Example 20, 4-(4-((1R,5S)-1-ethyl-3,8-diazabicyclo[3.2.1]octan-3-yl)-8-fluoro-2-(((S)-2-methylenetetrahydro-1H-pyrrolizin-7a(5H)-yl)methoxy)pyrido[4,3-d]pyrimidin-7-yl)-5-ethynyl-6-fluoronaphthalen-2-ol]: the IC50 in the data set with AsPC-1 is 17.2 nM; in the data set on AGS (Homo sapiens, AGS, 96 h) it was 3.1 nM; at KRAS^G12D/cRAF it was 3 nM.

Turning to `C#Cc1c(F)ccc2cc(O)cc(-c3ncc4c(N5C[C@@H]6CC[C@](COC)(C5)N6)nc(OC[C@@]56CCCN5CC(=C)C6)nc4c3F)c12` [Example 22, 5-ethynyl-6-fluoro-4-(8-fluoro-4-((1R,5S)-1-(methoxymethyl)-3,8-diazabicyclo[3.2.1]octan-3-yl)-2-(((S)-2-methylenetetrahydro-1H-pyrrolizin-7a(5H)-yl)methoxy)pyrido[4,3-d]pyrimidin-7-yl)naphthalen-2-ol], the IC50 in the data set with AsPC-1 was 14.3 nM; with AGS (Homo sapiens, AGS, 96 h), 21.7 nM; at KRAS^G12D/cRAF, 2.9 nM.

For the compound `C#Cc1c(F)ccc2cc(O)cc(-c3ncc4c(N5C[C@@H]6CC[C@](C7CC7)(C5)N6)nc(OC[C@@]56CCCN5CC(=C)C6)nc4c3F)c12` [Example 29, 4-(4-((1S,5S)-1-cyclopropyl-3,8-diazabicyclo[3.2.1]octan-3-yl)-8-fluoro-2-(((S)-2-methylenetetrahydro-1H-pyrrolizin-7a(5H)-yl)methoxy)pyrido[4,3-d]pyrimidin-7-yl)-5-ethynyl-6-fluoronaphthalen-2-ol], the IC50 in the data set on AsPC-1 was 102 nM; in the data set with AGS (Homo sapiens, AGS, 96 h), 21 nM; on KRAS^G12D/cRAF, 25 nM.

Take `C#Cc1c(F)ccc2cc(O)cc(-c3ncc4c(N5C[C@@H]6CC[C@](C7CC7)(C5)N6)nc(OC[C@@]56CCCN5CC(=C(F)F)C6)nc4c3F)c12` [Example 45, 4-(4-((1S,5S)-1-cyclopropyl-3,8-diazabicyclo[3.2.1]octan-3-yl)-2-(((S)-2-(difluoromethylene)tetrahydro-1H-pyrrolizin-7a (5H)-yl)methoxy)-8-fluoropyrido [4,3-d]pyrimidin-7-yl)-5-ethynyl-6-fluoronaphthalen-2-ol]: the IC50 with LS513 was 163 nM; in the data set with HPAC it was 133 nM; on KRAS^G12D/cRAF it was 52.5 nM.

In the case of `C#Cc1c(F)ccc2cc(O)cc(-c3ncc4c(N5C[C@@H]6CC[C@](CC)(C5)N6)nc(OC[C@@]56CCCN5C/C(=C\F)C6)nc4c3F)c12` [Example 55, 4-(4-((1R,5S)-1-ethyl-3,8-diazabicyclo[3.2.1]octan-3-yl)-8-fluoro-2-(((Z)-2-(fluoromethylene)tetrahydro-1H-pyrrolizin-7a (5H)-yl)methoxy)pyrido[4,3-d]pyrimidin-7-yl)-5-ethynyl-6-fl uoronaphthalen-2-ol], the IC50 in the data set on AsPC-1 was found to be 16.3 nM; with AGS, 1.3 nM; on KRAS^G12D/cRAF, 3 nM.

In the case of `C#Cc1c(F)ccc2cc(O)cc(-c3ncc4c(N5C[C@@H]6CC[C@](COC)(C5)N6)nc(OC[C@@]56CCCN5C/C(=C\F)C6)nc4c3F)c12` [Example 58, 5-ethynyl-6-fluoro-4-(8-fluoro-2-(((Z)-2-(fluoromethylene)tetrahydro-1H-pyrrolizin-7a(5H)-yl)methoxy)-4-((1R,5S)-1-(methoxymethyl)-3,8-diazabicyclo [3.2.1]octan-3-yl)pyrido[4,3-d]pyrimidin-7-yl)naphthalen-2-ol], the IC50 was determined as 21.8 nM in the data set on AsPC-1; 1.7 nM in the data set on AGS (Homo sapiens, AGS, 96 h); 6 nM on KRAS^G12D/cRAF.

Turning to `[2H]C([2H])([2H])OC[C@@]12CC[C@@H](CN(c3nc(OC[C@@]45CCCN4C/C(=C\F)C5)nc4c(F)c(-c5cc(O)cc6ccc(F)c(C#C)c56)ncc34)C1)N2` [Example 61, 5-ethynyl-6-fluoro-4-(8-fluoro-2-(((Z)-2-(fluoromethylene)tetrahydro-1H-pyrrolizin-7a(5H)-yl)methoxy)-4-((1R,5S)-1-((methoxy-d3)methyl)-3,8-diazabicyclo[3.2.1]octan-3-yl)pyrido[4,3-d]pyrimidin-7-yl)naphthalen-2-ol], the IC50 stood at 37.9 nM in the data set on AsPC-1, 3.4 nM with AGS and 2.5 nM at KRAS^G12D/cRAF.

For the compound `C#Cc1c(F)ccc2cc(O)cc(-c3ncc4c(N5C[C@@H]6CC[C@](CC)(C5)N6)nc(OC[C@@]56CCCN5C/C(=C/F)C6)nc4c3F)c12` [Example 80, 4-(4-((1R,5S)-1-ethyl-3,8-diazabicyclo[3.2.1]octan-3-yl)-8-fluoro-2-(((S,E)-2-(fluoromethylene)tetrahydro-1H-pyrrolizin-7a (5H)-yl)methoxy)pyrido[4,3-d]pyrimidin-7-yl)-5-ethynyl-6-fluoronaphthalen-2-ol], the IC50 in the data set on AsPC-1 came to 39.6 nM; in the data set on AGS (Homo sapiens, AGS, 96 h), 5.8 nM; on KRAS^G12D/cRAF, 6.2 nM.

For the compound `[2H]C([2H])([2H])OC[C@@]12CC[C@@H](CN(c3nc(OC[C@@]45CCCN4C/C(=C/F)C5)nc4c(F)c(-c5cc(O)cc6ccc(F)c(C#C)c56)ncc34)C1)N2` [Example 84, 5-ethynyl-6-fluoro-4-(8-fluoro-2-(((S,E)-2-(fluoromethylene)tetrahydro-1H-pyrrolizin-7a (5H)-yl)methoxy)-4-((1R,5S)-1-((methoxy-d3)methyl)-3,8-diazabicyclo[3.2.1]octan-3-yl)pyrido[4,3-d]pyrimidin-7-yl) naphthalen-2-ol], the concentration for half-maximal inhibition (IC50) in the data set on AsPC-1 was found to be 59.3 nM; in the data set on AGS (Homo sapiens, AGS, 96 h), 11.4 nM; on KRAS^G12D/cRAF it was 3.9 nM.

As for `C#Cc1c(F)ccc2cc(O)cc(-c3ncc4c(N5C[C@@H]6CC[C@](C7CC7)(C5)N6)nc(OC[C@@]56CCCN5C/C(=C/F)C6)nc4c3F)c12` [Example 90, 4-(4-((1S,5S)-1-cyclopropyl-3,8-diazabicyclo[3.2.1]octan-3-yl)-8-fluoro-2-(((S,E)-2-(fluoromethylene)tetrahydro-1H-pyrrolizin-7a(5H)-yl)methoxy)pyrido[4,3-d]pyrimidin-7-yl)-5-ethynyl-6-fluoronaphthalen-2-ol], the IC50 in the data set with AsPC-1 was found to be 103 nM; with AGS (Homo sapiens, AGS, 96 h), 28.1 nM; on KRAS^G12D/cRAF, 40.7 nM.

`[2H]C([2H])([2H])[C@@]12CC[C@@H](CN(c3nc(OC[C@@]45CCCN4C/C(=C\F)C5)nc4c(F)c(-c5cc(N)cc6ccc(F)c(C#C)c56)ncc34)C1)N2` [Example 355, 5-ethynyl-6-fluoro-4-(8-fluoro-2-(((S,Z)-2-(fluoromethylene)tetrahydro-1H-pyrrolizin-7a(5H)-yl)methoxy)-4-((1R,5S)-1-(methyl-d3)-3,8-diazabicyclo[3.2.1]octan-3-yl)pyrido[4,3-d]pyrimidin-7-yl)naphthalen-2-amine]: the IC50 in the data set on AsPC-1 is 66.1 nM. For the same compound, the IC50 with AGS (Homo sapiens, AGS, 96 h) turned out to be 17.7 nM. In data set [1] (iv, 2 mg/kg), the AUC stood at 223 ng·h/mL, the peak concentration (Cmax) came out at 68.9 ng/mL and the half-life is 7.2 h. In data set [1] (po, 10 mg/kg), this compound had an exposure (AUC) of 466 ng·h/mL, a Cmax of 120 ng/mL, a bioavailability of 41.7% and a half-life of 9.1 h. At KRAS^G12D/cRAF, this compound gave an IC50 of 11 nM.

In general, IC50 refers to the point on the concentration scale where inhibition reaches its midpoint. By AUC is commonly meant concentration integrated over time. The low end stands for less exposure, the high end for more exposure. The Cmax is the peak of the concentration-time curve. Usually half-life stands for how long it takes for the measured level to halve. In general, bioavailability refers to dose-corrected exposure relative to a reference, in per cent.
